Molecules are shown by their SMILES.

What all share (type): in vivo, BALB/C male nude mice
Assay [1] deals with UM-UC-3 derived tumor xenografts. The assay is described as follows: UM-UC-3 tumor xenograft growth in nude mice. Here is the method:
(§1) Each experiment was performed three times. All animals were adult BALB/C male nude mice of 8-12 weeks of age and experiments were performed in accordance with the National Institutes of Health Guide for the Care and Use of Laboratory Animals and approved by the animal research committee of Harbin Medical University, China.
(§2) Cells (1×10^6-7th/100 μL) embedded in BD Matrigel™ Matrix were subcutaneously injected at three sites in the back of each mouse (3-4 mice per treatment). On day 7-12th following cell injection, the animals were treated with the different drugs by an intraperitoneal injection, which was repeated every three days. Tumor volumes were monitored/calculated using the equation V=W^2L×0.5 (where W and L represent the […] tumor diameters (mm)) and then plotted. The tumor mass mice were weighed, fixed/sliced for immunohistochemistry after sacrificing the animals.
(§3) Two sets of tumor xenograft/nude mice studies were carried out. The in vivo study involves […]. Both mean±S.D of tumor volume and mass were calculated. […]
(§4) This example then compared the in vivo anticancer activity of EH/Ci/Mi regimen with its mono- and bi-drug counterparts on the 5637, UM-UC-3, or Biu87 cells derived tumor xenografts in nude mice. […] The tumor volumes were measured once every three days and were normalized by the volume on day 7. […]

The test system of assay [2] is Biu87 derived tumor xenografts. The assay is described as follows: Biu87 tumor xenograft growth in nude mice. Here is the method: as §1, §2, §3, §4
In assay [3] the test system is 5637 derived tumor xenografts. The assay is described as follows: 5637 tumor xenograft growth in nude mice. Here is the method:
as §1, §2, §3, §4

Assay [4] relates to CD34 positive vascular structures in tumor xenografts. The assay is described as follows: CD34 immunohistochemistry of tumor xenografts. To be noted: relative to PBS controls; day 28. Here is the method:
Immunostaining was performed on 5 μm slices of formalin fixed paraffin-embedded tumor xenografts using antibodies from Gene Tech Company (Shanghai, China) against both Ki67 and CD34. Pictures were taken by LEICA DM 4000B microscope and the relative level of each protein was calculated using LEICA software. The relative staining per antibody (in percentage) in the […] tumors was calculated and plotted.
This example then compared the in vivo anticancer activity of EH/Ci/Mi regimen with its mono- and bi-drug counterparts on the 5637, UM-UC-3, or Biu87 cells derived tumor xenografts in nude mice. Since there is no established conversion rule for the drug dose in cell culture to in nude mice, this example used 75 μg per mouse for the mono-drug treatments and 25 μg per drug per mouse for both bi-drug and tri-drug combinations, based on the maximum tolerated drug dose recommended for these drugs. To minimize the inter-mouse bias's effect on tumor growth, three different BCa cell line-derived tumor xenografts were individually established subcutaneously on the back of the twelve mice (FIG. 5A). […] The tumor volumes were measured once every three days and were normalized by the volume on day 7. […]

Regarding `N.N.[Cl][Pt][Cl]` [Ci, (SP-4-2)-diamminedichloroplatinum(II)], the relative tumor weight in assay [1] (UM-UC-3 derived tumor, day 28, tri-drug group taken as 1) is given as 3.37; in assay [2] (Biu87 derived tumor, day 28, tri-drug group taken as 1), 1.48; in assay [3] (5637 derived tumor, day 28, tri-drug group taken as 1), 1.79. In addition, the “increase in tumor volume on day 28th (relative tumor volume)” value in assay [1] (UM-UC-3 xenograft, normalized by volume on day 7, i.p. at three-day interval, 75 μg per mouse mono-drug, 25 μg per drug per mouse combinations) is on record as 10.58; in assay [2] (Biu87 xenograft, normalized by volume on day 7, i.p. at three-day interval, 75 μg per mouse mono-drug, 25 μg per drug per mouse combinations) it was 4.95. In assay [3] (5637 xenograft, normalized by volume on day 7, i.p. at three-day interval, 75 μg per mouse mono-drug, 25 μg per drug per mouse combinations), the relative tumor volume is given as 6.2. Also, in assay [4], the “numbers of CD34 positive vascular structures in tumor xenografts” value was “reduced”.

For the origin of these results see patent US10238688B2, “Combination therapies for bladder cancer” (GENEDIA BIOTECH CO. LTD., priority 2015, dated 2019).
